Data: ChEMBL document CHEMBL4808247 (Bioorg Med Chem, 2021)
In brackets after ≈: the same amount, converted by molar mass.

Experiments:
Enterobacter cloacae [1] = test: Antibacterial activity against Enterobacter cloacae IR32 producing class B beta-lactamase, NDM1 assessed as reduction in microbial growth incubated for 16 to 20 hrs by broth microdilution method; type: functional; conditions: time 16-20 hrs
Escherichia coli [2] = test: Antibacterial activity against Escherichia coli NIHJ JC-2 assessed as reduction in microbial growth incubated for 16 to 20 hrs by broth microdilution method; type: functional; conditions: time 16-20 hrs
Escherichia coli [3] = test: Antibacterial activity against Escherichia coli SR34100 producing class A beta-lactamase, CTX-M-15 assessed as reduction in microbial growth incubated for 16 to 20 hrs by broth microdilution method; type: functional; conditions: time 16-20 hrs
Enterobacter cloacae [4] = test: Antibacterial activity against Enterobacter cloacae SR36276 producing class C beta-lactamase, AmpC assessed as reduction in microbial growth incubated for 16 to 20 hrs by broth microdilution method; type: functional; conditions: time 16-20 hrs
Klebsiella pneumoniae [5] = test: Antibacterial activity against Klebsiella pneumoniae PLE producing class D beta-lactamase, OXA-48 assessed as reduction in microbial growth incubated for 16 to 20 hrs by broth microdilution method; type: functional; conditions: time 16-20 hrs
Klebsiella pneumoniae [6] = test: Antibacterial activity against Klebsiella pneumoniae JMI:211 producing class A beta-lactamase, KPC-2 assessed as reduction in microbial growth incubated for 16 to 20 hrs by broth microdilution method; type: functional; conditions: time 16-20 hrs
Escherichia coli [7] = test: Antibacterial activity against Escherichia coli BL21(DE3) transfected with pET9a vector harboring class D beta lactamase, OXA-48 incubated for 16 to 20 hrs by broth microdilution method; type: functional; conditions: time 16-20 hrs
Escherichia coli [8] = test: Antibacterial activity against Escherichia coli BL21(DE3) transfected with pET9a empty vector incubated for 16 to 20 hrs by broth microdilution method; type: functional; conditions: time 16-20 hrs
Escherichia coli [9] = test: Antibacterial activity against Escherichia coli BL21(DE3) transfected with pET9a vector harboring class A beta lactamase, CTX-M-15 incubated for 16 to 20 hrs by broth microdilution method; type: functional; conditions: time 16-20 hrs
Escherichia coli [10] = test: Antibacterial activity against Escherichia coli BL21(DE3) transfected with pET9a vector harboring class B beta lactamase, NDM-1 incubated for 16 to 20 hrs by broth microdilution method; type: functional; conditions: time 16-20 hrs
Escherichia coli [11] = test: Antibacterial activity against Escherichia coli BL21(DE3) transfected with pET9a vector harboring class C beta lactamase, AmpC incubated for 16 to 20 hrs by broth microdilution method; type: functional; conditions: time 16-20 hrs
[12] = Ratio of MIC for antibacterial activity against Escherichia coli BL21(DE3) transfected with pET9a vector harboring class B beta lactamase NDM-1 to MIC for antibacterial activity against Escherichia coli BL21(DE3); type: functional
[13] = Ratio of MIC for antibacterial activity against Escherichia coli BL21(DE3) transfected with pET9a vector harboring class C beta lactamase AmpC to MIC for antibacterial activity against Escherichia coli BL21(DE3); type: functional
[14] = Inhibition of CMY-2 in Escherichia coil BL21 assessed as inhibition of nitrocefin hydrolysis measured every 3 mins for 15 mins by UV spectrophotometer analysis; design: species or system Escherichia coli BL21
Klebsiella pneumoniae [15] = test: Antibacterial activity against Klebsiella pneumoniae ATCC13883 assessed as reduction in microbial growth incubated for 16 to 20 hrs by broth microdilution method; type: functional; conditions: time 16-20 hrs
Enterobacter cloacae [16] = test: Antibacterial activity against Enterobacter cloacae 1,261,347 producing class A beta lactamase, PER-2 assessed as reduction in microbial growth incubated for 16 to 20 hrs by broth microdilution method; type: functional; conditions: time 16-20 hrs
Enterobacterales [17] = test: Antimicrobial activity against Enterobacterales producing KPC assessed as reduction in microbial growth measured after 16 to 20 hrs by broth microdilution method; type: functional; conditions: time 16-20 hrs
Enterobacterales [18] = test: Antimicrobial activity against Enterobacterales producing NDM assessed as reduction in microbial growth measured after 16 to 20 hrs by broth microdilution method; type: functional; conditions: time 16-20 hrs
Enterobacterales [19] = test: Antimicrobial activity against Enterobacterales producing VIM assessed as reduction in microbial growth measured after 16 to 20 hrs by broth microdilution method; type: functional; conditions: time 16-20 hrs
Enterobacterales [20] = test: Antimicrobial activity against Enterobacterales producing OXA-48 assessed as reduction in microbial growth measured after 16 to 20 hrs by broth microdilution method; type: functional; conditions: time 16-20 hrs
Klebsiella pneumoniae [21] = test: Antibacterial activity against Klebsiella pneumonia ATCC 13883 infected in cyclophosphamide-induced neutropenic Jcl:ICR mouse model assessed as log10 reduction in CFU at 10 mg/kg, sc administered at 2, 5 and 8 hrs after infection and measured at 10 hrs after infection; type: functional
Klebsiella pneumoniae [22] = test: Antibacterial activity against Klebsiella pneumonia ATCC 13883 infected in cyclophosphamide-induced neutropenic Jcl:ICR mouse model assessed as log10 reduction in CFU at 3 mg/kg, sc administered at 2, 5 and 8 hrs after infection and measured at 10 hrs after infection; type: functional

SMILES	MIC (Enterobacter cloacae [1]) [µg/mL]	MIC (Escherichia coli [2]) [µg/mL]	MIC (Escherichia coli [3]) [µg/mL]	MIC (Enterobacter cloacae [4]) [µg/mL]	MIC (Klebsiella pneumoniae [5]) [µg/mL]	MIC (Klebsiella pneumoniae [6]) [µg/mL]	further results
Nc1nc(/C(=N/OCC(=O)O)C(=O)N[C@@H]2C(=O)N3[C@@H]2[S@@+]([O-])C[C@@H]2CC(=O)O[C@@]23C(=O)O)ns1	2	1	8	1	4	1	–
Nc1nc(/C(=N/OCC(=O)O)C(=O)N[C@@H]2C(=O)N3[C@@H]2SC[C@@H]2CC(=O)O[C@@]23C(=O)O)c(Cl)s1	2	1	4	8	16	4	–
Nc1nc(/C(=N/OCC(=O)O)C(=O)N[C@@H]2C(=O)N3[C@@H]2SC[C@@H]2CC(=O)O[C@@]23C(=O)O)ns1	0.5	0.125	0.25	4	1	0.125	–
CC(C)(O/N=C(\C(=O)N[C@H]1CON(C2(C(=O)O)CCC(=O)O2)C1=O)c1csc(N)n1)C(=O)O (stereo in doubt)	1	0.25	4	> 32	1	–	MIC (Escherichia coli [7]): 0.063 µg/mL (≈ 0.13 µM); MIC (Escherichia coli [8]): 0.063 µg/mL (≈ 0.13 µM); MIC (Escherichia coli [9]): 0.063 µg/mL (≈ 0.13 µM); MIC (Escherichia coli [10]): 0.25 µg/mL (≈ 0.515 µM); MIC (Escherichia coli [11]): 2 µg/mL (≈ 4.12 µM); Ratio [12]: 4; Ratio [13]: 32
Nc1nc(/C(=N/OCC(=O)O)C(=O)N[C@@H]2C(=O)N3[C@@H]2S(=O)(=O)C[C@@H]2CC(=O)O[C@@]23C(=O)O)cs1 (stereo in doubt)	0.25	0.25	1	1	0.5	0.5	–
Nc1nc(/C(=N/OCC(=O)O)C(=O)N[C@@H]2C(=O)N3[C@@H]2[S@+]([O-])C[C@@H]2CC(=O)O[C@@]23C(=O)O)cs1 (stereo in doubt)	2	0.25	1	> 32	0.5	0.5	–
C[C@@H](O/N=C(\C(=O)N[C@@H]1C(=O)N2[C@@H]1SC[C@@H]1CC(=O)O[C@@]12C(=O)O)c1csc(N)n1)C(=O)O (stereo in doubt)	0.25	0.125	0.5	16	1	0.5	–
Nc1nc(/C(=N/OCC(=O)O)C(=O)N[C@@H]2C(=O)N3[C@@H]2[S@@+]([O-])C[C@@H]2CC(=O)O[C@@]23C(=O)O)cs1 (stereo in doubt)	0.063	0.063	0.125	0.063	0.125	0.063	Ki [14]: > 60 µM; MIC (Klebsiella pneumoniae [15]): 0.125 µg/mL; MIC (Enterobacter cloacae [16]): 0.25 µg/mL; MIC50 (Enterobacterales [17]): 0.25 µg/mL; MIC90 (Enterobacterales [17]): 0.5 µg/mL; MIC50 (Enterobacterales [18]): 0.25 µg/mL; MIC90 (Enterobacterales [18]): 1 µg/mL; MIC50 (Enterobacterales [19]): 0.25 µg/mL; MIC90 (Enterobacterales [19]): 1 µg/mL; MIC50 (Enterobacterales [20]): 0.125 µg/mL; MIC90 (Enterobacterales [20]): 0.25 µg/mL; Activity (Klebsiella pneumoniae [21]): 2.46 log10CFU; Activity (Klebsiella pneumoniae [22]): 2.11 log10CFU
